Measurements: patent publication US10919941B2, “Functional lipid constructs” (KODE BIOTECH LIMITED, priority 2007, dated 2021)
No end group written: not given here.

Legend:
[1] = tested on: TAP1 serum (Taiwan Miltenberger antibody positive sample); test: Anti-MUT serum (TAP1) reactivity of modified RBCs (saline and AHG); format: cell-based, human; design: key: 0 or ‘−’ no agglutination; 0 or ‘−’ no agglutination; 1+ or 3=very weak agglutination; 1+ or 3=very weak agglutination; 2+ or 5=weak agglutination; 2+ or 5=weak agglutination; 3+ or 8=moderate strong agglutination; 3+ or 8=moderate strong agglutination; 4+ or 10/12=strong agglutination; 4+ or 10/12=strong agglutination; 4+ or 10/12=strong agglutination
antibody negative serums = test: False positive reactions of modified RBCs with antibody negative serums/plasma; format: cell-based, human; design: key to Reaction score BioVue AHG, PAC samples 1-46, 49, 50, 52, 53 / Reaction score BioVue AHG, PAC sample 47 / Reaction score BioVue AHG, PAC sample 48 / Reaction score BioVue AHG, PAC sample 51 / agglutination score, T series serum 2 / agglutination score, T series serum 42 / agglutination score, T series serum 63 / agglutination score, T series serum 62 / agglutination score, T series serum 7 / agglutination score, T series serum 20 / agglutination score, T series serum 48 / agglutination score, T series serum 22 / agglutination score, T series serum 39 / agglutination score, T series serum 23 / agglutination score, T series serum 30 / agglutination score, T series serum 4 / agglutination score, T series serum 31 / agglutination score, T series serum 44 / agglutination score, T series serum 61 / agglutination score, T series serum 18 / agglutination score, T series serum 21 / agglutination score, T series serum 28 / agglutination score, T series serum 55 / agglutination score, false positive serum T18 / agglutination score, false positive serum T21 / agglutination score, false positive serum T28 / agglutination score, false positive serum T55 / agglutination score, false positive serum T78 / agglutination score, false positive serum T92: 0 or ‘−’ no agglutination; 0 or ‘−’ no agglutination; 1+ or 3=very weak agglutination; 1+ or 3=very weak agglutination; 2+ or 5=weak agglutination; 2+ or 5=weak agglutination; 3+ or 8=moderate strong agglutination; 3+ or 8=moderate strong agglutination; 4+ or 10/12=strong agglutination; 4+ or 10/12=strong agglutination; 4+ or 10/12=strong agglutination
[2] = Australia, Melb Path, 45 tested, construct 50 μg/ml
[3] = Australia, RNSH, 500 tested, construct 50 μg/ml
[4] = Malaysia, UMMC, 749 tested, construct 50 μg/ml
[5] = Philippines, Metrop Hosp, 60 tested, construct 50 μg/ml
[6] = blood donor plasma, construct 50 μg/ml (2 hours, 37° C.)

With “M22: DOPE peptide-lipid construct: MUTK peptide SQTNDKHKRD, leader c, spacer CMG(2) (SQTNDKHKRDC; also: DOPE peptide-lipid construct via leader Cys, spacer CMG(2))” the “TAP 1 Serum, AHG score” value ([1]; construct 10 μg/ml) was 5, the “TAP 1 Serum, Saline score” value ([1]; construct 10 μg/ml) was 0 and the “TAP 1 Serum, AHG score” value ([1]; construct 20 μg/ml) was 8. For the same substance, the “TAP 1 Serum, Saline score” value ([1]; construct 20 μg/ml) was 0, the “TAP 1 Serum, AHG score” value ([1]; construct 50 μg/ml) was 8 and the “TAP 1 Serum, Saline score” value ([1]; construct 50 μg/ml) was 0. For the same substance, the “Reactivity with anti-MUT serum TAP1” value ([1]; construct 50 μg/ml (2 hours, 37° C.)) was 8, the “TAP 1 Serum, AHG score” value ([1]; construct 100 μg/ml) was 8 and the “TAP 1 Serum, Saline score” value ([1]; construct 100 μg/ml) was 0. For the same substance, the “TAP 1 Serum, AHG score” value ([1]; construct 200 μg/ml) was 10, the “TAP 1 Serum, Saline score” value ([1]; construct 200 μg/ml) was 0 and the “% Positive, BioVue” value (antibody negative serums; Australia, CSL, 100 tested, construct 50 μg/ml) was 3.0%. The “Number Positive, BioVue” value (antibody negative serums; Australia, CSL, 100 tested, construct 50 μg/ml, 3 h RT then 18 h 4° C.) was 3, the “% Positive, BioVue” value (antibody negative serums; [2]) was 4.5% and the “Number Positive, BioVue” value (antibody negative serums; [2]) was 2. The “% Positive, BioVue” value (antibody negative serums; [3]) was 0.4%, the “% Positive, DiaMed” value (antibody negative serums; [3]) was 0.4% and the “Number Positive, BioVue” value (antibody negative serums; [3]) was 2. The “Number Positive, DiaMed” value (antibody negative serums; [3]) was 2, the “% Positive, BioVue” value (antibody negative serums; [4]) was 2.5% and the “Number Positive, BioVue” value (antibody negative serums; [4]) was 19. For the same substance, the “% Positive, Tube” value (antibody negative serums; [5]) was 0%, the “Number Positive, Tube” value (antibody negative serums; [5]) was 0 and the “Reaction score BioVue AHG, PAC sample 47” value (antibody negative serums; [6]) was 0. For the same substance, the “Reaction score BioVue AHG, PAC sample 48” value (antibody negative serums; [6]) was 0, the “Reaction score BioVue AHG, PAC sample 51” value (antibody negative serums; [6]) was 0 and the “Reaction score BioVue AHG, PAC samples 1-46, 49, 50, 52, 53” value (antibody negative serums; [6]) was 0. For the same substance, the “% False Positives” value (antibody negative serums; panel of blood donor plasma samples (PAC), BioVue AHG, construct 50 μg/ml) was 0%.
